What all share (format): cell-based, human
The subject of experiment [1] is SURF1-deficient fibroblasts. In words: Cell viability by Calcein AM in mitochondrial stressor media. Conditions: SURF1-deficient fibroblasts; FIG. 2A. As for the experimental part:
(§1) Fibroblasts previously derived from four patients with primary mitochondrial disease (Surf1, Complex I, Cox10, Polg), three patients with NGLY1 deficiency and four normal controls were used for the study. All samples were obtained with informed consent and approved by the Stanford IRB. Fibroblasts were maintained in DMEM medium containing 8.3 mM glucose and supplemented with 10% fetal bovine serum (FBS)(Fisher Scientific), 1% Penicillin-Streptomycin (10,000 U/mL)(Life Technologies), 1% glutaMAX (Life Technologies), 1% uridine (5 mg/ml) and 1% pyruvate (11 mg/ml) at 37° C., 5% CO2. For the screening of various compounds, 15×10^3 cells/500 ul media were seeded in quadruplets on 24 well microtiter plates. The following day, the medium was removed, wells washed with PBS and replaced with a mitochondrial stressor media containing DMEM, 1% Penicillin-Streptomycin (10,000 U/mL)(Life Technologies), 10% FCS (Fisher Scientific), 1 mM Galactose (Sigma Aldrich), and 25 μM sodium azide with or without the following compounds: 1 mM AICAR (Medchem Express), 1 mM Metformin (Sigma Aldrich), 100 μM PT1 (Santa Cruz Biotechnology), 100 μ[…] Express). Following treatment with the various compounds, tissue cultures were analyzed for growth, oxygen consumption rate, and ATP levels. Methods: Cell growth was measured by a fluorometric method using Calcein AM (Anaspec). Mitochondrial stressor media was removed, wells washed with PBS and then incubated with 500 ul/well of 800 nM Calcein AM in PBS for 30 min at 37 C, 5% CO2. Cell viability was measured by values obtained using a 485 nm excitation with the Flouroskan Ascent Microplate Fluorometer (Thermo Scientific).

The test system of experiment [2] is COX10-deficient fibroblasts. Described as above. Conditions: FIG. 2B. On the procedure: as §1
In experiment [3] the test system is POLG-deficient fibroblasts. Described as above. The note with it: FIG. 2D. As for the experimental part: as §1
The subject of experiment [4] is COX10 deficient fibroblasts. In words: Cell viability (Calcein AM) in siRNA knockdown study. Conditions: PT1 alone and siCNT+PT1 vs DMSO and siAMPK+PT1; FIG. 4B. On the procedure:
Methods: Cell growth was measured by a fluorometric method using Calcein AM (Anaspec). Mitochondrial stressor media was removed, wells washed with PBS and then incubated with 500 ul/well of 800 nM Calcein AM in PBS for 30 min at 37 C, 5% CO2. Cell viability was measured by values obtained using a 485 nm excitation with the Flouroskan Ascent Microplate Fluorometer (Thermo Scientific).
To test whether the cellular response to PT1 is a result of AMPK activation itself, or is merely a result of nonspecific interactions, an siRNA knockdown strategy was used. siRNA for PRKAA1 (s101) and a negative control (Life Technologies) were incubated with Hiperfect reagent (Qiagen) in media containing DMEM, 1% Penicillin-Streptomycin (10,000 U/mL) (Life Technologies), 1% glutaMAX (Life Technologies) but no serum and allowed to complex for 10 min at room temperature. […] At the end of the incubation period, the cells were analyzed for levels of AMPK and pAMPK by western blot analysis (see protocol above) or incubated for six additional days with PT1 (or DMSO as untreated control) and assessed for viability by Calcein AM. COX10-deficient fibroblasts were treated with PT1 and either siAMPK or siCNT, and responses were evaluated for pAMPK protein expression by western blotting (FIG. 4A), cell viability by Calcein AM fluorescence assay (FIG. 4B), and cell morphology by phase contrast microscopy (FIGS. 4C-4F)

Experiment [5] has as its system CI-deficient fibroblasts. Briefly: Cellular morphology by phase-contrast microscopy. Conditions: vs untreated. An excerpt: (§2) Fibroblasts in tissue culture were visualized by phase-contrast microscopy with a Leica DM IRB microscope at ×10 magnification, and images were taken with the Hamamatsu ORCA-ER camera.
In experiment [6] the test system is POLG-deficient fibroblasts. In words: Cellular morphology by phase-contrast microscopy. Conditions: vs untreated.
From the text: as §2

Experiment [7] concerns NGLY1 deficient fibroblasts. In words: Lipofuscin levels. The note with it: FIG. 8B.
For experiment [8], the system named is SURF1 deficient fibroblasts. In words: ATP levels, CellTiter-Glo ATP Assay. Conditions: PT1 48 hrs vs DMSO. As for the experimental part:
(§3) Methods: SURF1, POLG, and NGLY1 patient cells were supplemented with PT1 or DMSO (untreated control) for 48 hrs (n=3) and ATP levels measured by the CellTiter-Glo ATP Assay or for 72 hrs (n=3) and ROS levels were measured by the CellROX Deep Red Flow Cytometry Assay. Results were normalized to total protein concentration. Data are represented as the mean±standard error of the mean. Statistical significance was measured to p<0.05.
In general terms: ATP-based viability assays read luminescence as a measure of living cells.

Experiment [9] has as its system POLG deficient fibroblasts. In words: ATP levels, CellTiter-Glo ATP Assay. The note with it: PT1 48 hrs vs DMSO. On the procedure: as §3
In experiment [10] the test system is NGLY1 deficient fibroblasts. Briefly: ATP levels, CellTiter-Glo ATP Assay. Conditions: PT1 48 hrs vs DMSO. As for the experimental part:
as §3

In experiment [11] the test system is PGC-1α. Briefly: Gene expression after PT1 treatment. Conditions: 48 hr treatment with PT1; FIG. 5B.
The test system of experiment [12] is NGLY1 deficient fibroblasts. Briefly: Oxygen consumption rate (OCR), XF96 extracellular flux analyzer. Conditions: PT1 vs DMSO, FIG. 6C. As for the experimental part: Methods: Oxygen consumption rate (OCR) was measured using an XF96 extracellular flux analyzer (Seahorse Biosciences). Fibroblasts were seeded at 10×10^3 cell/well in 100 ul media containing 8.3 mM glucose and supplemented with 10% fetal bovine serum (FBS) (Fisher Scientific), 1% Penicillin-Streptomycin (10,000 U/mL)(Life Technologies), 1% glutaMAX (Life Technologies), 1% uridine (5 mg/ml) and 1% pyruvate (11 mg/ml) on an XF 96 well plate at 37° C., 5% CO2. The following day the medium was replaced with the mitochondrial stressor media (details above) with or without PT1, A-769662, and AICAR. After 48 hours the stressor media was replaced with 175 μl unbuffered XF base DMEM medium (Fisher Scientific) with the same constituents as the mitochondrial stressor medium and incubated at 37° C. for 30 min for equilibrium before the measurements. OCR Baseline measurements were measured three times, once every five minutes. After the experiment, cell content was estimated by Calcein AM fluorescence intensity (FI) and OCR was calculated as OCR divided by FI.

Entries after “also recorded” stand apart in the source; their conditions may differ.

Take `Cc1cc(-c2ccc(C=C3SC(=S)N(c4ccc(Cl)c(C(=O)O)c4)C3=O)o2)c([N+](=O)[O-])cc1C` [PT1]: the values for the survival / viability result in experiment [1], in [2] and in experiment [3] were “largest improvement”, “improves survival; also recorded: significantly improved survival” and “improves survival; also recorded: significantly improved survival”, respectively. Further, the cell viability entry in [4] is on record as “increased viability”. The cellular morphology result in experiment [5] and in experiment [6] was “cell morphology improved” each time. Also, the “reduction of lipofuscin levels” value in experiment [7] is “approximately 36%”. The “increase in ATP production / content” value in experiment [8] is on record as 35%; in experiment [9], 36%; in experiment [10] it was 40%. Besides, the “increase in expression of PGC-1α” value in [11] worked out at 2.4 fold. The “improvement in basal respiration (basal OCR)” value in experiment [12] is given as 16%.

The record behind these values is patent US12377077B2, “Methods and formulations to treat mitochondrial dysfunction” (The Board of Trustees of the Leland Stanford Junior …, priority 2018, dated 2025).
